We go through 16 compounds from patent publication US10844002B2, “Lipids and lipid compositions for the delivery of active agents” (priority 2014, dated 2020).

The subject of one series is RSV F protein. Format: in vivo. Conditions: Table 4, BALB/c mice, intramuscular; for Log10(IgG titer), RNA (RSV-F), 2 weeks post 2nd immunization: 100 ng dose; for Log10(IgG titer), 1 ng RNA (RSV-F), 2 weeks post 2nd immunization: 1 ng vA375 replicon in LNP, days 0 and 21.
Series [1] can be described thus: Encapsulation efficiency of RNA replicons (Quant-iT RiboGreen). Conditions: LNP 40% cationic lipid, 10% DSPC, 48% cholesterol, 2% PEG-DMG; RNA replicon. Format: physicochemical. As to the method:
Briefly, lipids were dissolved in ethanol (2m1), a RNA replicon was dissolved in buffer (2 ml, 100 mM sodium citrate, pH 6) and these were mixed with 2 ml of buffer followed by 1 hour of equilibration. The mixture was then dialized overnight against 1×PBS. The resulting product contained liposomes, with ˜70-95% encapsulation efficiency.
The percentage of encapsulated RNA and RNA concentration were determined by Quant-iT RiboGreen RNA reagent kit (Invitrogen), following manufacturer's instructions. The ribosomal RNA standard provided in the kit was used to generate a standard curve. LNPs were diluted 10× or 100× in 1× TE buffer (from kit) before addition of the dye. Separately, LNPs were diluted 10× or 100× in 1× TE buffer containing 0.5% Triton X before addition of the dye (to disrupt the LNPs and thus to assay total RNA). Thereafter an equal amount of dye was added to each solution and then ˜180 μL of each solution after dye addition was loaded in duplicate into a 96 well tissue culture plate. The fluorescence (Ex 485 nm, Em 528 nm) was read on a microplate reader. All LNP formulations were dosed in vivo based on the encapsulated amount of RNA.

A short description of series [2]: Measurement of mRNA encapsulation in lipid nanoparticles (Quant-iT Ribogreen). Format: physicochemical. The conditions noted are these: LNP cationic lipid/DSPC/cholesterol/stealth lipid, N:P 4:1, leptin mRNA. The protocol: All equipment and disposable supplies are certified free of RNase activity by the manufacturer or rendered RNase free by use of the RNaseZap reagent (LifeTechnologies). mRNA is encapsulated at a cationic lipid amine to mRNA phosphate (N:P) molar ratio of 4:1. Lipids (cationic lipid, DSPC, cholesterol and lipidated PEG or stealth lipid) are dissolved in ethanol. The molar ratios are 40:10:38:2, respectively. The mixture is sonicated briefly, then gently agitated for 5 minutes and then maintained at 37° C. until use. mRNA is exchanged into citrate buffer pH 5.8-6.0 by use of Amicon Ultra-15 centrifugal concentrators, and the final concentration is adjusted to 0.5 mg/ml and held at 37° C. until use. An equal volume of lipids in ethanol, mRNA in citrate buffer, and citrate buffer alone are drawn into disposable syringes. Tubing leading from syringes containing lipids and mRNA are attached to the T junction, and tubing leading from the syringe containing citrate buffer alone is paired with the tubing exiting the T-junction over a collection vessel containing a stir bar on an active stir plate. Syringes are placed in a syringe pump set to expel contents at a flow rate of 1 ml per minute.
The pump is activated, and the collected mRNA in lipid nanoparticles is transferred to SnakeSkin dialysis tubing (10,000 MWCO, Thermo Scientific). Material is dialyzed against RNAse- and pyrogen-free 1× phosphate buffered saline overnight at 4° C.
Percent encapsulation of mRNA in lipid nanoparticles is determined using the Quant-iT Ribogreen RNA Assay kit (Life Technologies). The LNP-mRNA suspension is assayed in buffer (mRNA outside the particle), and buffer plus Triton X-100 detergent (total mRNA). The difference calculated is the mRNA inside the particle. Prepare a 1000 ng/mL stock from the RNA provided in the kit and use this to generate a standard curve (0 ng/ml, 15.63-1000 ng/ml) in TE and TE+0.75% Triton X-100. Prepare LNP-mRNA samples in TE buffer and TE buffer+0.75% Triton X-100 with appropriate dilution so that reading is in the range of standard curve (400-2,000 fold). In a 384-well plate (Costar non-treated #3573) add 0.04 ml of standard (in duplicate) or sample (in triplicate) per well. Dilute Ribogreen reagent 240-fold in TE buffer and add 0.06 ml per well. Mix contents of wells and measure fluorescence (excitation=480 nm, emission=520 nm). Subtract background values (no RNA) from standard and test sample values and determine the concentrations of RNA in the samples using the standard curves. Determine the percent encapsulation of the sample by dividing the difference in concentrations between sample+triton and sample in buffer alone by the sample+triton concentration.

The nature of series [3]: Characterization of LNP formulations: Z average particle diameter and polydispersity index. Format: physicochemical. Conditions: LNP formulation; for Zav (nm): Z average particle diameter; for polydispersity: polydispersity index. From the text: The lipid nanoparticles have a size of about 1 to about 2,500 nm, about 1 to about 1,500 nm, about 1 to about 1,000 nm, in a sub-embodiment about 50 to about 600 nm, in a sub-embodiment about 50 to about 400 nm, in a sub-embodiment about 50 to about 250 nm, and in a sub-embodiment about 50 to about 150 nm. Unless indicated otherwise, all sizes referred to herein are the average sizes (diameters) of the fully formed nanoparticle, as measured by dynamic light scattering on a Malvern Zetasizer. The nanoparticle sample is diluted in phosphate buffered saline (PBS) so that the count rate is approximately 200-400 kcts. The data is presented as a weighted average of the intensity measure.

Marks after values point to notes of the source that are not given here.

As for `CCCCC/C=C\C/C=C\CCCCCCCCOc1ccc(OCCCCCCCC/C=C\C/C=C\CCCCC)c(COC(=O)CCN(C)C)c1` [Example 2, 2,5-bis((9Z,12Z)-octadeca-9,12-dien-1-yloxy)benzyl 3-(dimethylamino)propanoate], in the series on RSV F protein, the “Log10(IgG titer), RNA (RSV-F), 2 weeks post 2nd immunization” value is recorded as 4.14 (100 ng dose)*. Further, the “Encapsulation efficiency (RNA %)” value in series [1] is 13.1%.
On the same counts, the results for `CCCCC/C=C\C/C=C\CCCCCCCCOc1ccc(OCCCCCCCC/C=C\C/C=C\CCCCC)c(COC(=O)OCCCN(C)C)c1` [Example 3, 2,5-bis((9Z,12Z)-octadeca-9,12-dienyloxy)benzyl 3-(dimethylamino)propyl Carbonate] are 4.77 (100 ng dose)* and 85.0%.
Consider `CCCCCCCCCC(=O)OCCCCCCCCOc1ccc(OCCCCCCCCOC(=O)CCCCCCCCC)c(COC(=O)CCN(C)C)c1` [Example 5], for which, in series [2], the “% encapsulation (mRNA Leptin)” value turned out to be 59.0%.
`CCCCCCCCCC(=O)OCCCCCCCCOc1ccc(OCCCCCCCCOC(=O)CCCCCCCCC)c(COC(=O)C2CCN(C)CC2)c1` [Example 6, ((2-(((1-methylpiperidine-4-carbonyl)oxy)methyl)-1,4-phenylene)bis(oxy))bis(octane-8,1-diyl) bis(decanoate)]: the “Log10(IgG titer), 1 ng RNA (RSV-F), 2 weeks post 2nd immunization” value (“Log10(IgG titer), 1 ng RNA (RSV-F)” for short) in the series with RSV F protein turned out to be 4.25. Further, the “Encapsulation efficiency (RNA %)” value in series [1] was determined as 71.3%.
As to `CCCCCCCCCC(=O)OCCCCCCCCOc1ccc(OCCCCCCCCOC(=O)CCCCCCCCC)c(COC(=O)CCCN(C)C)c1` [Example 7, ((2-(((4-(dimethylamino)butanoyl)oxy)methyl)-1,4-phenylene)bis(oxy))bis(octane-8,1-diyl) bis(decanoate)], the “Log10(IgG titer), 1 ng RNA (RSV-F)” value in the series on RSV F protein was determined as 4.37. Further, in series [3], the “Zav (nm)” value was 100.7 nm and the polydispersity is 0.096. Further, the “% encapsulation (mRNA Leptin)” value in series [2] was determined as 95.4%. In addition, the “Encapsulation efficiency (RNA %)” value in series [1] amounted to 85.6%.
As to `CCCCCCCCCC(=O)OCCCCCCCCOc1ccc(OCCCCCCCCOC(=O)CCCCCCCCC)c(COC(=O)C2CCN(C(C)C)CC2)c1` [Example 9, ((2-(((1-isopropylpiperidine-4-carbonyl)oxy)methyl)-1,4-phenylene)bis(oxy))bis(octane-8,1-diyl) bis(decanoate)], in series [3], the “Zav (nm)” value worked out at 182.6 nm and the polydispersity turned out to be 0.369. For the same compound, the “Encapsulation efficiency (RNA %)” value in series [1] is listed as 69.1%.
On to `CCCCCCCCCC(=O)OCCCCCCCCOc1ccc(OCCCCCCCCOC(=O)CCCCCCCCC)c(COC(=O)OCCCN(C)C)c1` [Example 12, ((2-((((3-(dimethylamino)propoxy)carbonyl)oxy)methyl)-1,4-phenylene)bis(oxy))bis(octane-8,1-diyl) bis(decanoate)], for which the “Log10(IgG titer), 1 ng RNA (RSV-F)” value with RSV F protein worked out at 4.40. Also, in series [3], the “Zav (nm)” value worked out at 97.3 nm and the polydispersity was determined as 0.116. The “Encapsulation efficiency (RNA %)” value in series [1] came out at 89.8%.
`CCCCCCCCCC(=O)OCCCCCCCCOc1ccc(OCCCCCCCCOC(=O)CCCCCCCCC)c(COC(=O)OCCCN(CC)CC)c1` [Example 13, ((2-((((3-(diethylamino)propoxy)carbonyl)oxy)methyl)-1,4-phenylene)bis(oxy))bis(octane-8,1-diyl) bis(decanoate)]: the “Encapsulation efficiency (RNA %)” value in series [1] was determined as 92.1%.
As for `CCCCC/C=C\C/C=C\CCCCCCCCOc1cc(COC(=O)OCCCCN(C)C)c(OCCCCCCCC/C=C\C/C=C\CCCCC)cc1C` [Example 15, 4-(dimethylamino)butyl 4-methyl-2,5-bis((9Z,12Z)-octadeca-9,12-dienyloxy)benzyl Carbonate], the “Log10(IgG titer), 1 ng RNA (RSV-F)” value in the series on RSV F protein turned out to be 2.81. For the same compound, in series [3], the “Zav (nm)” value came out at 138.8 nm and the polydispersity worked out at 0.210. Moreover, in series [1], the “Encapsulation efficiency (RNA %)” value was determined as 82.6%.
As for `CCCCCCCCOC(CCC(=O)OCCCOc1ccc(OCCCOC(=O)CCC(OCCCCCCCC)OCCCCCCCC)c(COC(=O)CCCN(C)C)c1)OCCCCCCCC` [Example 20, ((2-(((4-(Dimethylamino)butanoyl)oxy)methyl)-1,4-phenylene)bis(oxy))bis(propane-3,1-diyl) bis(4,4-bis(octyloxy)butanoate)], in series [2], the “% encapsulation (mRNA Leptin)” value was found to be 88.4%.
Take `CCCCCCCCOC(CCC(=O)OCCCCCOc1ccc(OCCCCCOC(=O)CCC(OCCCCCCCC)OCCCCCCCC)c(COC(=O)CCCN(C)C)c1)OCCCCCCCC` [Example 21, ((2-(((4-(Dimethylamino)butanoyl)oxy)methyl)-1,4-phenylene)bis(oxy))bis(pentane-5,1-diyl) bis(4,4-bis(octyloxy)butanoate)]: the “% encapsulation (mRNA Leptin)” value in series [2] came to 79.8%.
Still for that read-out and setting: with `CCCCCCCCOC(CCC(=O)OCCCCCOc1ccc(OCCCCCOC(=O)CCC(OCCCCCCCC)OCCCCCCCC)c(COC(=O)CCCN(CC)CC)c1)OCCCCCCCC` [Example 22, ((2-(((4-(diethylamino)butanoyl)oxy)methyl)-1,4-phenylene)bis(oxy))bis(pentane-5,1-diyl) bis(4,4-bis(octyloxy)butanoate)] the figure was 86.0%; with `CCCCCCCCOC(CCC(=O)OCCCCCOc1ccc(OCCCCCOC(=O)CCC(OCCCCCCCC)OCCCCCCCC)c(COC(=O)C2(C)CCN(C)CC2)c1)OCCCCCCCC` [Example 23, ((2-(((1,4-Dimethylpiperidine-4-carbonyl)oxy)methyl)-1,4-phenylene)bis(oxy))bis(pentane-5,1-diyl) bis(4,4-bis(octyloxy)butanoate)], 84.3%; with `CCCCCCCCCC(=O)OCCCCCCCCOc1ccc(COC(=O)C2(C)CCN(C)CC2)c(OCCCCCCCCOC(=O)CCCCCCCCC)c1` [Example 26, ((4-(((1,4-Dimethylpiperidine-4-carbonyl)oxy)methyl)-1,3-phenylene)bis(oxy))bis(octane-8,1-diyl) bis(decanoate)], 90.8%.
The same measure, in the same setting: next, `CCCCCCCCCC(=O)OCCCCCCCCOc1ccc(COC(=O)CCCN(C)C)c(OCCCCCCCCOC(=O)CCCCCCCCC)c1` [Example 27, ((4-(((4-(Dimethylamino)butanoyl)oxy)methyl)-1,3-phenylene)bis(oxy))bis(octane-8,1-diyl) bis(decanoate)]: 95.2%; `CCCCCCCCCC(=O)OCCCCCCCCOc1ccc(COC(=O)CCCN(CC)CC)c(OCCCCCCCCOC(=O)CCCCCCCCC)c1` [Example 28, ((4-(((4-(Diethylamino)butanoyl)oxy)methyl)-1,3-phenylene)bis(oxy))bis(octane-8,1-diyl) bis(decanoate)]: 93.6%.
